In patent publication US20230234943A1, “TREX1 INHIBITORS AND USES THEREOF” (Tempest Therapeutics, Inc., priority 2020, published 2023) one finds IC50 data, which are given here for 34 molecules.

Molecules are shown by their SMILES. A value given as a limit tells only on which side of the number the result lay.

For this experiment, the target named is T1, Human TREX1 enzyme (amino acids 1-242) (Homo sapiens, UniProt Q9NSU2).
T1 construct: Human TREX1 enzyme (amino acids 1-242)
T1 sequence (Q9NSU2 1-242): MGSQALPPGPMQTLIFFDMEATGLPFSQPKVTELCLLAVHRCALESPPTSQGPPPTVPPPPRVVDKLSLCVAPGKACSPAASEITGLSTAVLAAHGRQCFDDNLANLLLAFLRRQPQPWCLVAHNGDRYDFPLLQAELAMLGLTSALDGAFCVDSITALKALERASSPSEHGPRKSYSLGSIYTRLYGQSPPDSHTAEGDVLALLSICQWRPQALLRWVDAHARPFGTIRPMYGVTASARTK
The experiment is described as follows: Human TREX1 enzymatic assay with dsDNA native oligonucleotide (Picogreen fluorescence). The class given is biochemical. As to conditions: 2 mM dithiothreitol in assay buffer; 50 nM dsDNA oligonucleotide; 30 min preincubation at 25° C.; read-out: TREX1/Human + DTT IC50 AVG. The method, boiled down:
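Remaining dsDNA quantified by Picogreen fluorescence after EDTA quench, with no-enzyme and DMSO wells as controls. Reactions used 50 nM annealed oligonucleotide for 5–15 min at 25 °C, after a 30 min compound–enzyme preincubation (0.8–0.16 nM TREX1; 2% DMSO; pH 7.7 Tris, 5 mM MgCl2).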
As to `COc1cc(-c2nc3ccc(-c4ncno4)cc3n2C2(C)COC2)c(F)c(O)c1O` [Example 181, 3-fluoro-6-methoxy-4-[1-(3-methyloxetan-3-yl)-6-(1,2,4-oxadiazol-5-yl)-1H-1,3-benzodiazol-2-yl] benzene-1,2-diol], the IC50 is not above 0.1 µM.

`COc1cc(-c2nc3cc(N4CC(C#N)C4)ccc3[nH]2)cc(O)c1O` [Example 138, 1-(2-(3,4-dihydroxy-5-methoxyphenyl)-1H-benzo[d]imidazol-5-yl)azetidine-3-carbonitrile]: the IC50 is more than 100 µM. The figure for `COC(=O)c1cc(-c2nc3cc(N4CCC4)ccc3[nH]2)cc(OC)c1O` [Example 196, methyl 5˜(5-(azetidin-1-yl)-1H-benzo[d]imidazol-2-yl)-2-hydroxy-3-methoxybenzoate] is more than 100 µM; for `COc1cc(-c2nc3ccc(C(=O)NC4CC(F)(F)C4)cc3n2C2(C)COC2)c(F)c(O)c1O` [Example 205, N-(3,3-difluorocyclobutyl)-2-(2-fluoro-3,4-dihydroxy-5-methoxyphenyl)-1-(3-methyloxetan-3-yl)-1H-benzo[d]imidazole-6-carboxamide] it is not above 0.1 µM; for `COc1cc(-c2nc3ccccc3n2C2CCCC2)c(C)c(O)c1O` [Example 148, 4-(1-cyclopentyl-1H-benzo[d]imidazol-2-yl)-6-methoxy-3-methylbenzene-1,2-diol] it is 1 to 10 µM. The same measure for `COc1cc(-c2nc3cc(N4CCC4)ccc3[nH]2)c(F)c(O)c1O` [Example 157, 4-(5-(azetidin-1-yl)-1H-benzo[d]imidazol-2-yl)-3-fluoro-6-methoxybenzene-1,2-diol]: 1 to 10 µM. The figure for `COc1cc(-c2nc3ccc(C(=O)N(C)C)cc3n2C2(C)COC2)c(F)c(O)c1O` [Example 245, 2-(2-fluoro-3,4-dihydroxy-5-methoxyphenyl)-N,N-dimethyl-1-(3-methyloxetan-3-yl)-1H-benzo[d]imidazole-6-carboxamide] is 1 to 10 µM; for `CNC(=O)c1ccc2nc(-c3cc(OC)c(O)c(O)c3F)n(C3(C)COC3)c2c1` [Example 212, 2-(2-fluoro-3,4-dihydroxy-5-methoxyphenyl)-N-methyl-1-(3-methyloxetan-3-yl)-1H-benzo[d]imidazole-6-carboxamide] it is not above 0.1 µM; for `O=C(O)c1cc(-c2nc3ccccc3n2C2COC2)ccc1O` [Example 3, 2-hydroxy-5-(1-(oxetan-3-yl)-1H-benzo[d]imidazol-2-yl)benzoic acid] it is more than 100 µM. As to `COc1cc(-c2nc3ccccc3n2C2COC2)cc(C(=O)O)c1O` [Example 89, 2-hydroxy-3-methoxy-5-(1-(oxetan-3-yl)-1H-benzo[d]imidazol-2-yl)benzoic acid], the IC50 is more than 100 µM. For the molecule `COc1ccc(C(=O)N2CCN(c3ccc4[nH]c(-c5cc(O)c(O)c(OC)c5)nc4c3)CC2)cc1` [Example 85, (4-(2-(3,4-dihydroxy-5-methoxyphenyl)-1H-benzo[d]imidazol-5-yl)piperazin-1-yl)(4-methoxyphenyl)methanone], the IC50 was in the range of 1 to 10 µM. The figure for `COc1cc(-c2nc3ccccc3n2C2(C)CC2)c(F)c(O)c1O` [Example 329, 3-fluoro-6-methoxy-4-(1-(1-methylcyclopropyl)-1H-benzo[d]imidazol-2-yl)benzene-1,2-diol] is 0.1 to 1 µM; for `COc1cc(-c2nc3c(Cl)c(Cl)ccc3[nH]2)c(F)c(O)c1O` [Example 202, 4-(6,7-dichloro-1H/benzo[d]imidazol-2-yl)-3-fluoro-6-methoxybenzene-1,2-diol] it is more than 100 µM; for `COc1cc(-c2nc3ccccc3n2[C@H]2COC[C@@H]2O)c(C)c(O)c1O` [Example 170, 4-(1-((3S,4R)-4-hydroxytetrahydrofuran-3-yl)-1H-benzo[d]imidazol-2-yl)-6-methoxy-3-methylbenzene-1,2-diol] it is 10 to 100 µM. In the case of `O=C(O)c1ccc(-c2nc3ccccc3n2C2COC2)cc1O` [Example 56, 2-hydroxy-4-(1-(oxetan-3-yl)-1H-benzo[d]imidazol-2-yl)benzoic acid], the IC50 was more than 100 µM. For `COc1cc(-c2nc3ccccc3n2C2CNC2)c(C)c(O)c1O` [Example 165, 4-(1-(azetidin-3-yl)-1H-benzo[d]imidazol-2-yl)-6-methoxy-3-methylbenzene-1,2-diol], the IC50 was 10 to 100 µM.

`COc1cc(-c2nc3cc(NC(=O)c4ccncc4)ccc3n2C2(C)COC2)c(F)c(O)c1O` [Example 306, N-(2-(2-fluoro-3,4-dihydroxy-5-methoxyphenyl)-1-(3-methyloxetan-3-yl)-1H-benzo[d]imidazol-5-yl)isonicotinamide]: the IC50 is not above 0.1 µM. The figure for `COc1cc(-c2nc3cc(N4CCN(C(C)=O)CC4)ccc3[nH]2)cc(O)c1O` [Example 26, 1-(4-(2-(3,4-dihydroxy-5-methoxyphenyl)-1H-benzo[d]imidazol-5-yl)piperazin-1-yl)ethanone] is more than 100 µM; for `COc1cc(-c2nc3ccccc3[nH]2)c(C)c(O)c1O` [Example 17, 4-(1H-benzo[d]imidazol-2-yl)-6-methoxy-3-methylbenzene-1,2-diol] it is more than 100 µM. With `COc1cc(-c2nc3cc(C4CCN(C)CC4)ccc3[nH]2)cc(O)c1O` [Example 68, 3-methoxy-5-(5-(1-methylpiperidin-4-yl)-1H-benzo[d]imidazol-2-yl)benzene-1,2-diol], the IC50 is more than 100 µM. With `CNCc1ccc2nc(-c3cc(OC)c(O)c(O)c3F)n(C3(C)COC3)c2c1` [Example 186, 3-fluoro-6-methoxy-4-(6-((methylamino)methyl)-1-(3-methyloxetan-3-yl)-1H-benzo[d]imidazol-2-yl)benzene-1,2-diol], the IC50 was 1 to 10 µM.

With `COc1cc(-c2nc3cc(N4CCN(C(=O)c5ccc6ccccc6c5)CC4)ccc3[nH]2)cc(O)c1O` [Example 81, (4-(2-(3,4-dihydroxy-5-methoxyphenyl)-1H-benzo[d]imidazol-5-yl)piperazin-1-yl)(naphthalen-2-yl)methanone], the IC50 was more than 100 µM.

For the molecule `COc1cc(-c2nc3ccccc3n2C(C)(C)C)c(C)c(O)c1O` [Example 227, 4-(1-(tert-butyl)-1H-benzo[d]imidazol-2-yl)-6-methoxy-3-methylbenzene-1,2-diol], the IC50 lay within 0.1 to 1 µM. The same measure for `COc1cc(-c2nc3ccc(C(=O)Nc4cnoc4)cc3n2C2(C)COC2)c(F)c(O)c1O` [Example 247, 2-(2-fluoro-3,4-dihydroxy-5-methoxyphenyl)-N-(isoxazol-4-yl)-1-(3-methyloxetan-3-yl)-1H-benzo[d]imidazole-6-carboxamide]: not above 0.1 µM; for `COc1cc(-c2nc3ccc(-c4ccccn4)cc3n2C2(C)COC2)c(F)c(O)c1O` [Example 182, 3-fluoro-6-methoxy-4-[1-(3-methyloxetan-3-yl)-6-(pyridin-2-yl)-1H-1,3-benzodiazol-2-yl]benzene-1,2-diol]: 0.1 to 1 µM. As for `COc1cc(-c2nc3ccccc3n2C23CC(C2)C3)c(C)c(O)c1O` [Example 291, 4-(1-(bicyclo[1.1.1]pentan-1-yl)-1H-benzo[d]imidazol-2-yl)-6-methoxy-3-methylbenzene-1,2-diol], the IC50 was in the range of 0.1 to 1 µM. Regarding `COc1cc(-c2nc3cc(N4CCN(C5CC5)CC4)ccc3[nH]2)cc(O)c1O` [Example 274, 5-(5-(4-cyclopropylpiperazin-1-yl)-1H-benzo[d]imidazol-2-yl)-3-methoxybenzene-1,2-diol], the IC50 was more than 100 µM. The figure for `COc1cc(-c2nc3cc(NC(=O)CCO)ccc3n2C2(C)COC2)c(F)c(O)c1O` [Example 224, N-(2-(2-fluoro-3,4-dihydroxy-5-methoxyphenyl)-1-(3-methyloxetan-3-yl)-1H-benzo[d]imidazol-5-yl)-3-hydroxypropanamide] is not above 0.1 µM.

With `COc1cc(-c2nc3ccc(S(=O)(=O)Nc4ccccc4)cc3n2C(CO)CCl)cc(O)c1O` (stereo not shown) [Example 42, 1-(1-chloro-3-hydroxypropan-2-yl)-2-(3,4-dihydroxy-5-methoxyphenyl)-N-phenyl-1H-benzo[d]imidazole-6-sulfonamide], the IC50 was 10 to 100 µM.

Regarding `COc1cc(-c2nc3ccc(S(=O)(=O)Nc4ccccc4)cc3n2C2COC2)cc(O)c1O` [Example 39, 2-(3,4-dihydroxy-5-methoxyphenyl)-1-(oxetan-3-yl)-N-phenyl-1H-benzo[d]imidazole-6-sulfonamide], the IC50 is 10 to 100 µM. On to `COc1cc(-c2nc3cc(NC(=O)c4ccccc4)ccc3n2C2(C)COC2)c(F)c(O)c1O` [Example 303, N-(2-(2-fluoro-3,4-dihydroxy-5-methoxyphenyl)-1-(3-methyloxetan-3-yl)-1H-benzo[d]imidazol-5-yl)benzamide], for which the IC50 was not above 0.1 µM. Turning to `COc1cc(-c2nc3ccccc3n2CC2CCC2)c(C)c(O)c1O` [Example 239, 4-(1-(cyclobutylmethyl)-1H-benzo[d]imidazol-2-yl)-6-methoxy-3-methylbenzene-1,2-diol], the IC50 is more than 100 µM. As to `CCc1c(-c2nc3ccccc3n2C2(C)COC2)cc(OC)c(O)c1O` [Example 173, 3-ethyl-6-methoxy-4-[1-(3-methyloxetan-3-yl)-1H-1,3-benzodiazol-2-yl]benzene-1,2-diol], the IC50 lay in the range of 10 to 100 µM.

`CCNC(=O)c1ccc2nc(-c3cc(OC)c(O)c(O)c3F)n(C3(C)COC3)c2c1` [Example 262, N-ethyl-2-(2-fluoro-3,4-dihydroxy-5-methoxyphenyl)-1-(3-methyloxetan-3-yl)-1H-benzo[d]imidazole-6-carboxamide]: the IC50 was not above 0.1 µM.
